Test results from patent publication US10196357B2, “Biaryl compositions and methods for modulating a kinase cascade” (Athenex, Inc., priority 2007, dated 2019).
Entries after “also recorded” stand apart in the source; their conditions may differ.

Experiments:
[1] = tested on: L3.6pl cells; assay: growth inhibition (BrdU), L3.6pl; assay type: cell-based, human; conditions: Homo sapiens, L3.6pl, L3.6pl (Pancreas) cells, single agent
Source text: L3.6pl cells are previously described in Trevino et al. Am J Pathol.

[2] = tested on: SKOV-3 (Ovarian); assay: growth inhibition (BrdU), SKOV-3; assay type: cell-based, Human; conditions: Homo sapiens, SK-OV-3; SKOV-3 (Ovarian) cells
Source text: (§1) Growth Inhibition. […] T1 values≤T0 values were designated as T, cytotoxicity.

[3] = tested on: CCRF-HSB-2 (Adult lymphoblastic leukemia); assay: growth inhibition, CCRF-HSB-2; assay type: cell-based, Human
[4] = tested on: H226; assay: MTT growth inhibition, Dasatinib-resistant H226; assay type: cell-based, human; conditions: Homo sapiens, NCI-H226, H226, 8.0×10^3 cells/well, 1.5% FBS, 78 Hr
Protocol: Cell proliferation/growth inhibition was assessed using MTT colorimetric assay.
On Day 3, 10 μL MTT (5 mg/mL) was added to each well. Cells were then incubated in the presence of MTT for 4 hours at 37° C., appropriate CO2 conditions. After this incubation period, 90 μL 10% SDS(+HCl) was added to each well to lyse cells and solubilize formazan. Cells were then incubated overnight at 37° C., appropriate CO2 conditions.
The OD570 was measured using microplate reader. Growth inhibition curves and EC50/IC50 was determined using GraphPad Prism 4 statistical software.

[5] = tested on: HT29 (human colon cancer); conditions: mouse, in vivo
[6] = tested on: MOLT-4 (Adult lymphoblastic leukemia); assay: growth inhibition, MOLT-4; assay type: cell-based, Human; conditions: Homo sapiens
[7] = tested on: Ba/F3 (IL-3 induced); assay: MTT growth inhibition, Ba/F3 + IL-3; assay type: cell-based; conditions: 96 hrs
[8] = tested on: K562 (CML); assay: growth inhibition (BrdU), K562; assay type: cell-based, Human; conditions: Homo sapiens; K562, BrdU, T=72
Source text: as §1

[9] = tested on: PC3-MM2 prostate cancer cells; assay: orthotopic prostate model for in vivo metastases; parameters: species or system Nu/Nu mice; conditions: 15 mg/kg/day oral gavage
Protocol: Nu/Nu mice (8-12 weeks of age) were injected with PC3-MM2 prostate cancer cells into the prostate as described previously in Pettaway et al., Clin Cancer Res 1996, 2:1627-1636, hereby incorporated herein by reference in its entirety. […] All mice were sacrificed by cervical dislocation on about day 42. Tumor volume (measured by caliper), weight, and incidence of regional (celiac or para-aortal) lymph node metastases were recorded.

[10] = tested on: PLC/PRF/5; assay: MTT growth inhibition, PLC/PRF/5; assay type: cell-based, human; conditions: Homo sapiens, PLC-PRF-5, 78 h
Protocol: (§2) Samples of the test compounds were formulated in 100% DMSO to obtain 20 mM stock solutions; stored @ 4° C. The IC50s and IC80s were determined as described below. Huh7, WRL-68, PLC/PRF/5, Hep 3B, and Hep G2 human cancer lines were routinely cultured and maintained in a basal medium containing 2% FBS @ 37° C., 5% CO2. […] Vehicle control contained cells, no sample. Medium control contained cells, no sample, 0.03% DMSO (highest DMSO concentration present in samples). […] On day 3, 10 μL MTT (5 mg/mL) were added to each well. Cells were incubated in the presence of MTT for 4 hours @ 37° C., 5% CO2. […] Cells were then incubated overnight @ 37°, 5% CO2. OD570 measurements were taken using BioTek Synergy HT multiplatform microplate reader. Growth inhibition curves IC50s and IC80s were determined using GraphPad Prism 5 statistical software.

[11] = tested on: Hep 3B; assay: MTT growth inhibition, Hep 3B; assay type: cell-based, human; conditions: Homo sapiens, Hep3B, 78 h
Protocol: as §2

[12] = tested on: WRL-68; assay: MTT growth inhibition, WRL-68; assay type: cell-based, human; conditions: Homo sapiens, WRL68, 78 h
Protocol: as §2

[13] = tested on: HuH7; assay: MTT growth inhibition, HuH7; assay type: cell-based, human; conditions: Homo sapiens, Huh-7, 78 h
Protocol: Samples of the test compounds were formulated in 100% DMSO to obtain 20 mM stock solutions; stored @ 4° C. The IC50s and IC80s were determined as described below. Huh7, WRL-68, PLC/PRF/5, Hep 3B, and Hep G2 human cancer lines were routinely cultured and maintained in a basal medium containing 2% FBS @ 37° C., 5% CO2. […] The assay medium was basal medium/1.5% FBS. Cells were cultured overnight in 96-well plates at 37° C., 5% CO2 prior to KX2-391. MSA and Dasatinib addition. […] 10 μL of 20× dilutions were added to the appropriate wells (n=3) containing 190 μL cancer cell line; 6561 nM to 0.012 nM range of final concentrations. Vehicle control contained cells, no sample. Medium control contained cells, no sample, 0.03% DMSO (highest DMSO concentration present in samples). […] On day 3, 10 μL MTT (5 mg/mL) were added to each well. Cells were incubated in the presence of MTT for 4 hours @ 37° C., 5% CO2. […] Cells were then incubated overnight @ 37°, 5% CO2. OD570 measurements were taken using BioTek Synergy HT multiplatform microplate reader. Growth inhibition curves IC50s and IC80s were determined using GraphPad Prism 5 statistical software.

[14] = tested on: osteoclasts on bone slices; assay: osteoclast formation on bone slices; assay type: cell-based; conditions: vs untreated control
Protocol: To determine the effects of the compounds on osteoclast formation on bone slices, the bone slices were treated with Rapamycin, KX1-141, KX2-328, or KX1-329. […] The number of osteoclasts on the bone slices were counted.
Bone slices were treated as indicated above. […] The bone slices were then stained with TRAP.

[15] = noise-induced hearing loss; assay type: in vivo, Chinchillas; conditions: chinchilla ears treated on round window, 4 kHz band noise 105 dB SPL 4 h, days 1, 7, 21; relative to control ears
Protocol: Chinchillas (N=6) were used in studies of noise-induced hearing loss. The animals' hearing sensitivity was measured using standard electrophysical techniques before the experimental manipulation. […] Animals were anesthetized, the auditory bullae were opened, and the left and right cochleas were visualized. The round window leading to the scala tympani of the cochlea was used as the access point for drug application. Animals were treated with KX1-004, KX1-141, KX1-329 or KX2-328 (a non-ATP competitive inhibitor from AstraZeneca, KX2-238), emulsified in DMSO, in 1000 mM of saline solution, which was placed on the round window of one ear. KX1-004:
A control solution of 3 mM DMSO in 1000 mM of saline solution was placed on the round window of the other ear. The solution was allowed to set on the round window for 30 minutes, then the auditory bullae were closed. […] Following the noise exposure, the animals' hearing was tested at day 1, day 7, and day 21 to determine evoked potential threshold shifts. Permanent threshold shift was assessed at day 21.
FIGS. 10-12 show the average threshold shifts for animals treated with KX1-004, KX1-141, KX1-329 or KX2-328.

[16] = tested on: osteoblasts; assay: osteoblast protein expression; assay type: cell-based
Protocol: The enzyme alkaline phosphatase has been used as an indicator of osteoblast activity, as it is involved in making phosphate available for calcification of bone.
To determine the effects of the compounds on osteoblast activity and protein expression, osteoblasts were treated with medium, DMSO, BMP2, KX1-141, KX2-328, or KX1-329 as indicated above. The protein concentration in cell lysates was determined (μg/10 μl) (FIG. 23).

[17] = tested on: c-Src 3T3 cells; assay: BrdU cell growth inhibition, c-Src 3T3; assay type: cell-based, mouse; conditions: Mus musculus; for GI50: c-Src 3T3 (c-Src527F/NIH3T3) cells, read-out: GI50
Method in brief: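 c-Src 3T3 cells on poly-D-lysine plates in DMEM with 2% FBS, L-glutamine, pyruvate and 10 mM HEPES. Compounds came from 20 mM DMSO stocks diluted in DMEM/10% FBS. Proliferation was read by colorimetric BrdU-incorporation ELISA, and GI50 was extrapolated from growth relative to time-zero and untreated controls.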

[18] = tested on: osteoclasts; assay: osteoclast survival; assay type: cell-based; conditions: 48 hours, RANKL and M-CSF, vs untreated control
Protocol: To determine the effect of the compounds on osteoclast survival, osteoclasts were treated with Rapamycin, KX1-141, KX2-328, or KX1-329 for 48 hours in the presence of RANKL and M-CSF. The untreated, control cells were incubated in the presence of RANKL and M-CSF alone. Rapamycin was used as a positive control for the inhibition of osteoclast survival.
As described above, osteoclasts were treated with Rapamycin, KX1-141, KX2-328, or KX1-329 for 48 hours in the presence of RANKL and M-CSF. […] Cells were then stained with TRAP and the number of TRAP-positive osteoclasts were counted.

[19] = tested on: osteoclast precursors derived from spleen cells; assay: osteoclast formation from spleen cells; assay type: cell-based; conditions: 5 days, RANKL and M-CSF, vs untreated control
Protocol: To determine the effect of the compounds on osteoclast formation, the compounds were added to osteoclast precursors derived from spleen cells. For the generation of spleen-derived osteoclasts, spleen cells comprising osteoclast precursors were treated with Rapamycin, KX1-141, KX2-328 (AstraZeneca compound), or KX1-329 for 5 days in the presence of receptor activator of nuclear factor-xB ligand (RANKL) and macrophage colony-stimulating factor (M-CSF). In in vitro murine or human osteoclast models, soluble RANKL enables osteoclast precursors to differentiate in the presence of M-CSF (Quinn, et al.; 1998, Endocrinology, 139, 4424-4427; Jimi, et al.; 1999, J. Immunol., 163, 434-442). The untreated control cells were incubated in the presence of RANKL and M-CSF alone. Rapamycin was used as a positive control for the inhibition of osteoclast formation.
For generating spleen-derived osteoclasts, spleen cells were treated as described above. […] Cells were then stained with the osteoclast marker, tartrate-resistant acid phosphatase (TRAP) to visualize differentiated cells. The numbers of TRAP-positive osteoclasts were counted.

[20] = tested on: resorption pits on bone slices; assay: resorption pit formation on bone slices; assay type: cell-based; conditions: vs untreated control
Protocol: During the resorption of bone, osteoclasts form resorption pits. To determine the effects of the compounds on resorption pit formation on bone slices, the bone slices were treated with Rapamycin, KX1-141, KX2-328, or KX1-329, as described above. […] The number of resorption pits on the bone slices was determined.
Bone slices were treated as indicated above. […] The bone slices were stained with Toluidine Blue to reveal resorption pits, which are indicators of osteoclast-mediated resorption of bone.

[21] = tested on: HT29 cell line; assay: BrdU cell growth inhibition, HT29; assay type: cell-based, human; conditions: Homo sapiens
Method in brief: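 HT29 colon carcinoma cells treated with compounds diluted from 20 mM DMSO stocks into DMEM/10% FBS. Proliferation read as colorimetric BrdU incorporation ELISA; GI calculated relative to untreated cells at time 0 and control cells at day n, with GI50 extrapolated. Net cell loss below time-0 level scored as cytotoxicity.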

[22] = molecular target: isolated Src (Homo sapiens, UniProt P12931); assay: titration against isolated Src; assay type: biochemical; conditions: titration data
[23] = molecular target: isolated FAK (Homo sapiens, UniProt Q05397); assay: titration against isolated FAK; assay type: biochemical; conditions: titration data
Chain of isolated FAK (Q05397 whole entry): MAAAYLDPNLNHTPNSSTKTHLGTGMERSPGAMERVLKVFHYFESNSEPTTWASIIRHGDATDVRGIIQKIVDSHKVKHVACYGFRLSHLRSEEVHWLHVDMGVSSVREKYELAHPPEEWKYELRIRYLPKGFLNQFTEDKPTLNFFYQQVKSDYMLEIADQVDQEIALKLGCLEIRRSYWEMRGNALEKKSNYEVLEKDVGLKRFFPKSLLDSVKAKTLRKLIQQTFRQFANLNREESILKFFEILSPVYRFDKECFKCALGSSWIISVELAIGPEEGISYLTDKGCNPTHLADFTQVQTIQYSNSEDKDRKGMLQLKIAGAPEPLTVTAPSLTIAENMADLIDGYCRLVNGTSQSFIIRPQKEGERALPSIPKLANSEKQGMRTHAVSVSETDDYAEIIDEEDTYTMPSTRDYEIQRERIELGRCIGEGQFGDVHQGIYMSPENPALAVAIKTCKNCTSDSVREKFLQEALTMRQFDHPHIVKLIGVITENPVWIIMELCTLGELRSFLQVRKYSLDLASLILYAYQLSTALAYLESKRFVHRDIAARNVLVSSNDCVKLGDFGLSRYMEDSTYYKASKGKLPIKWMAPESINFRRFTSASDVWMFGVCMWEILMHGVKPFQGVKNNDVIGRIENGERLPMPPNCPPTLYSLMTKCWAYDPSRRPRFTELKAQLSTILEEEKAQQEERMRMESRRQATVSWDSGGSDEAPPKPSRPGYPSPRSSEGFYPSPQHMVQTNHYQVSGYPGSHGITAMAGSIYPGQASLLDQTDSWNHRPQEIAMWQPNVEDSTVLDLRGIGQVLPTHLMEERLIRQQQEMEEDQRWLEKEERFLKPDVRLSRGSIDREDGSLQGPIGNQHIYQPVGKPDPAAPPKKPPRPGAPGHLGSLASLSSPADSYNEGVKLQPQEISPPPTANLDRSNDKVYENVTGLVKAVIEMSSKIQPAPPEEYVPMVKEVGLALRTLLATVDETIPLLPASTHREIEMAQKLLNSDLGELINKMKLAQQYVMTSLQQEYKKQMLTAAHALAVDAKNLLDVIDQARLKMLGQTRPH

Chain of isolated Src (P12931 whole entry): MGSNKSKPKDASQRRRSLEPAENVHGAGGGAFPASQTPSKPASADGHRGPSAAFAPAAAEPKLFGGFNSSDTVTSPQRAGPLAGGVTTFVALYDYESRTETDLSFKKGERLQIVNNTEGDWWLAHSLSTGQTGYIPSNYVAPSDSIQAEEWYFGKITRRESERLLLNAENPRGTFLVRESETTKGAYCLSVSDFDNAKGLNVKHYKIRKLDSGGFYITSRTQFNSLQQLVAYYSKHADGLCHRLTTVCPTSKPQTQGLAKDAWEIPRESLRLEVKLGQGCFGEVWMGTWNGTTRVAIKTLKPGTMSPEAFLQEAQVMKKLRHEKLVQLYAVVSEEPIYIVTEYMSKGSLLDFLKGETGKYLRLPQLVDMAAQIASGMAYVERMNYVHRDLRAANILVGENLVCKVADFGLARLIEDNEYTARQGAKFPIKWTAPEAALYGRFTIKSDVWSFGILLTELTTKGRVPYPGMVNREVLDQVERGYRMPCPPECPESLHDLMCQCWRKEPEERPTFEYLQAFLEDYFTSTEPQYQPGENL

## Nc1ccn([C@@H]2O[C@H](CO)[C@@H](O)C2(F)F)c(=O)n1 [Gemcitabine, gemcitabine, reference compound]
[1]
  GI50: 2 nM

## CC(=O)O[C@H]1C(=O)[C@@]2(C)[C@H]([C@H](OC(=O)c3ccccc3)[C@]3(O)C[C@H](OC(=O)[C@H](O)[C@@H](NC(=O)c4ccccc4)c4ccccc4)C(C)=C1C3(C)C)[C@]1(OC(C)=O)CO[C@@H]1C[C@@H]2O [taxol, paclitaxel, reference compound]
[2]
  GI50: 3.9 nM

## Cc1nc(Nc2ncc(C(=O)Nc3c(C)cccc3Cl)s2)cc(N2CCN(CCO)CC2)n1 [Dasatinib, reference compound]
[3]
  GI50: Inactive (n = 1)
[4]
  IC50: 163 nM
  IC80: 7760 nM
[5]
  tolerability (reason for dose lowering at day 5): weight loss
[6]
  GI50: 644 nM
[7]
  GI50: does not inhibit; also recorded: Inactive
[8]
  GI50: < 1 nM
[9]
  LN metastasis: 2/5
  Tumor incidence: 5/6
  Tumor weight (g) Median: 0.43 g
[10]
  IC80: > 50000 nM
[11]
  IC80: > 50000 nM
[12]
  IC80: 45600 nM
[13]
  IC50: 1970 nM
  IC80: 7140 nM

## O=C(Cc1ccc(-c2ccccc2)cn1)NCc1cccc(F)c1 [KX1-329]
[14]; FIG. 20A
  number of osteoclasts on the bone slices: reduced
[14]; FIG. 21A
  number of TRAP-positive osteoclasts on the bone slices: reduced
[15]
  average dB threshold shifts: lower
[16]; 0.06 μM and 0.3 μM
  protein concentration in osteoblast cell lysates: increased protein concentration
[16]; […] and 7.5 μM
  protein concentration in osteoblast cell lysates: reduced protein concentration
[17]; NIH3T3, 100 nM, read-out: c-Src 3T3 Growth, % of Control Mean, n = 3
  activity at 0.1 µM: 96%
[17]; NIH3T3, 1.0 uM, read-out: c-Src 3T3 Growth, % of Control Mean, n = 3
  activity at 1 µM: < 0%
[17]; NIH3T3, 10 uM, read-out: c-Src 3T3 Growth, % of Control Mean, n = 3
  activity at 10 µM: < 0%
[17]
  GI50: 269 nM
[18]
  number of TRAP-positive osteoclasts (survival): reduced
  survival of osteoclasts (staining): inhibited
[19]
  formation of osteoclasts (staining): inhibited
  number of TRAP-positive osteoclasts (formation): reduced
[20]; FIG. 20B
  number of resorption pits on the bone slices: reduced
[20]; FIG. 21B
  number of resorption pits on the bone slices (Toluidine Blue): reduced
[21]; HT-29, HT29 (Colon) cells, read-out: GI50
  GI50: 338 nM
[21]; HT-29, 50 nM, read-out: HT-29 Growth, % of Control Mean, n = 3
  activity at 0.05 µM: 101%
[21]; HT-29, 500 nM, read-out: HT-29 Growth, % of Control Mean, n = 3
  activity at 0.5 µM: < 0%
[21]; HT-29, 5 uM, read-out: HT-29 Growth, % of Control Mean, n = 3
  activity at 5 µM: < 0%

## CN1CCN(CCOc2ccc(-c3ccc(CC(=O)NCc4cccc(F)c4)nc3)c(F)c2)CC1 [KX2-394]
[22]
  IC50: 5000 nM
[17]
  GI50: 13 nM
[23]
  IC50: > 48000 nM
